Patent US20260216134A1, “CHARGED PI-CONJUGATED MOLECULES FOR THE TREATMENT OF MICROBIAL INFECTIONS” (priority 2023, published 2026)
pIC50: −log10 of the molar value. “Also recorded” adds a separate entry of the source.

Experiments:
[1] = tested on: A375 cancer cells (melanoma); assay: Crystal violet cytotoxicity test in A375 cells without light activation; format: cell-based, human
Procedure: The inhibitory concentration of charged pi-conjugated compounds needed to inhibit the cell growth by 50% (toxicity IC50).
Most of the charged pi-conjugated compounds are aminocyanines which are functionalized with alkyl amine group. The charged pi-conjugated compounds were added to cell cultures of A375 cancer cells (human melanoma) and their cytotoxicity was quantified by the crystal violet test and/or clonogenic assays for cell viability. […] The longer the exposure the most cytotoxic the charged pi-conjugated compounds are towards A375 cells. […] The same behavior is observed: the longer the exposure, the more cytotoxic. All molecules presented here are aminocyanines except GL-261-2 which is a carboxyl-cyanine. […] This was the first time a therapeutic window of concentration that can be tuned to selectively kill cancer and/or protect cells was suspected. In finding this therapeutic window concentration and time of exposure are important variables that should be fine tuned.
Based on the finding described above, a larger set of charged pi-conjugated compounds was evaluated for cytotoxicity against A375 cancer cells as shown in FIG. 25 and FIG. 26.
The IC50 is the concentration needed to inhibit the cell viability by 50%. These molecules in FIG. 25 and FIG. 26 were evaluated by crystal violet assay and using 2 days of exposure.

S. aureus ATCC 25923 = assay: Single-step isolation of spontaneous resistant mutants; format: cell-based, Staphylococcus aureus
Source text: FIGS. 10A-10C show the development of resistance and mutation rate of bacterial strains subjected to repeated exposure to charged pi-conjugated compounds. (FIG. 10A) Stepwise development of resistance in B. cereus CECT131123, E. faecalis ATCC 29212, S. aureus ATCC 25923, and S. pneumoniae ATCC 49619. Bacterial strains were repeatedly exposed to charged pi-conjugated compounds or the conventional antibiotics ciprofloxacin (CIP), linezolid (LNZ) and vancomycin (VAN) for over 30 cycles. The y-axis indicates the MIC fold change, reflecting increased resistance over repeated treatment. (FIG. 10B) Mutation rate, represented as the frequency of rifampin-resistant cells, in S. aureus ATCC 25923 subjected to repeated cycles of treatment with charged pi-conjugated compounds or the conventional antibiotic ciprofloxacin (CIP). (FIG. 10C) Single-step resistance assessment of spontaneous mutants. […]
To estimate the occurrence of spontaneous charged pi-conjugated compound-resistant mutants, S. aureus cells cultured overnight were resuspended in PBS to yield 10^10 cells mL^−1 and then plated on both selective (charged pi-conjugated compound-containing) and non-selective LB agar plates. After incubation at 37° C. for 24-48 hours, colonies were counted, and the frequency of charged pi-conjugated compound-resistant mutants was calculated. […]

MRSA USA300 = assay: Therapeutic index calculation (IC50 of mammalian cell lines / MIC); conditions: ratio of average IC50 for A549 and HEK293 to MIC in MRSA USA300
Procedure: (§1) The biocompatibility of charged pi-conjugated compounds with mammalian cell lines was evaluated by studying the effects of different charged pi-conjugated compound concentrations on the viability of two mammalian cell lines: A549 (epithelial-like lung cells) and HEK293 (epithelial-like kidney cells). […] Dose-response curves were used to determine IC50 values, that is, the concentration of charged pi-conjugated compound needed to inhibit cell viability by 50%. […] The MIC of MRSA USA300 was used to calculate the therapeutic index. MRSA USA300 is a major contributor to community-associated MRSA infections, including skin and soft tissue infections, bacteraemia, endocarditis, bone and joint infections and nosocomial infections. […]
(§2) The biocompatibility of charged pi-conjugated compounds with mammalian cell lines was assessed by determining their impact on the mitochondrial activity of human alveolar basal epithelial adenocarcinoma cells (A549) and human embryonic kidney cells (HEK293T) cells, using the Presto Blue assay according to the manufacturer's protocol. […] After 8 h, Presto Blue cell viability reagent (Thermo Fisher Scientific, Waltham, MA, USA) was added to the cells, and after 2 h of incubation, fluorescence was measured using a microplate reader (BioTek Instruments Inc., Winooski, VT, USA). […] The therapeutic index was calculated from the ratio between IC50 and the MIC.

A375 tumors = assay: Intratumoral injection into A375 tumors in mice; format: in vivo
Procedure: Cy7.5-amine was intratumorally injected at the dose of 8 μg (equivalent to 50 μL of 200 μM Cy7.5-amine solution in PBS containing 2.5% DMSO. As control 50 μL of 2.5% DMSO in PBS solution was injected intratumorally. The blue dots indicate the days when the tumors were treated.
Then we applied Cy7.5-amine (FIG. 22C) by intratumoral injection into A375 tumors as described in FIG. 33.

[2] = tested on: HEK293 (epithelial-like kidney cells); assay: Presto Blue viability assay, HEK293; format: cell-based, human; conditions: HEK293, Presto Blue, 8 h treatment; read-out: IC50 (concentration needed to inhibit cell viability by 50%)
Procedure: as §1, §2

Compound: C[N+]1=C(/C=C/C2=CC(=C/C=C3/N(CCCCCC(=O)NCCCCCCN)c4ccc5ccccc5c4C3(C)C)/CCC2)C(C)(C)c2c1ccc1ccccc21.Cl.[Cl-] [Cy7.5-amine, Cyanine 7.5-amine]
- pIC50 [1]: 6.30
- cytotoxicity at short exposure [1]: safe and showed low cytotoxicity
- MIC of spontaneous resistant mutants (S. aureus ATCC 25923; mutants propagated on fresh plates, compared with WT strain): MIC indistinguishable from that of the WT
- spontaneous mutation rate (S. aureus ATCC 25923; plates containing 4×, 8×, 16×MIC, resistant CFU / total CFU): ≤ 10^−6
- therapeutic index (MRSA USA300): 1.3
- mice free of cancer (A375 tumors; after 7 months of the study): 2 out of 10
- loss of A375 tumors (A375 tumors; intratumoral 8 μg (50 μL of 200 μM), n=10 mice): 20%
- toxicity to the mice (body weight relative to control) (A375 tumors; intratumoral 200 μM, control 2.5% DMSO): no sign of toxicity; also recorded: does not cause change of the mice body weight
- pIC50 [2]: 5.20
